Converted amounts (≈) assume the structure as drawn. Where a name gives a salt, the structure may show the parent alone.
Legend:
Newcastle disease virus [1] = experiment: Antiviral activity against Newcastle disease virus Miyadera infected in CEF assessed as suppression of <= 1% hemagglutinating activity by tube assay; format: functional; details: avian paramyxovirus 1, Miyadera
[2] = Cytotoxicity against CEF after 24 hrs by microscopic analysis; design: species or system Gallus gallus; details: chicken; for MCC at 24 h: CEF cells; for MCC: 24 h
Newcastle disease virus [3] = experiment: Ratio of amantadine hydrochloride MIC to compound MIC for Newcastle disease virus Miyadera infected in CEF; format: functional, avian paramyxovirus 1
[4] = Ratio of MCC for CEF to MIC for Newcastle disease virus Miyadera infected in CEF

C1CC2CC3CCC2C(C1)C3
MIC (Newcastle disease virus [1]): 670 µM (≈ 101 µg/mL)
MCC at 24 h [2]: 670 µM

CC(=O)NC12CCCC3CC(CCC31)C2 (stereo not given)
MIC (Newcastle disease virus [1]): 750 µM (≈ 155 µg/mL)
MCC at 24 h [2]: 3000 µM

Cl.NC12CCCC3CC(CCC31)C2 (stereo not given)
Ratio (Newcastle disease virus [3]): 30
MIC (Newcastle disease virus [1]): 25 µM
Ratio [4]: 2
MCC at 24 h [2]: 200 µM

OC12CCCC3CC(CCC31)C2 (stereo not given)
MIC (Newcastle disease virus [1]): 3000 µM (≈ 499 µg/mL)
MCC at 24 h [2]: 6000 µM

O=C1C2CCC3C(CCCC13)C2 (stereo not given)
MIC (Newcastle disease virus [1]): 1200 µM (≈ 197 µg/mL)
MCC at 24 h [2]: 2400 µM

O=C(O)C12CCCC3CC(CCC31)C2 (stereo not given)
MIC (Newcastle disease virus [1]): 10000 µM (≈ 1940 µg/mL)
MCC at 24 h [2]: 10000 µM

COC(=O)C12CCCC3CC(CCC31)C2 (stereo not given)
MIC (Newcastle disease virus [1]): 80 µM (≈ 16.7 µg/mL)
MCC at 24 h [2]: 80 µM

OCC12CCCC3CC(CCC31)C2 (stereo not given)
MIC (Newcastle disease virus [1]): 440 µM (≈ 79.3 µg/mL)
MCC at 24 h [2]: 870 µM

NC(=O)C12CCCC3CC(CCC31)C2 (stereo not given)
MIC (Newcastle disease virus [1]): 2600 µM (≈ 503 µg/mL)
MCC at 24 h [2]: 5200 µM

CCCCCCCCOC(=O)C12CCCC3CC(CCC31)C2 (stereo not given)
MIC (Newcastle disease virus [1]): 330 µM (≈ 101 µg/mL)
MCC at 24 h [2]: 490 µM

CNC(=O)C12CCCC3CC(CCC31)C2 (stereo not given)
MIC (Newcastle disease virus [1]): 3000 µM (≈ 622 µg/mL)
MCC at 24 h [2]: 750 µM

CCCCNC(=O)C12CCCC3CC(CCC31)C2 (stereo not given)
MIC (Newcastle disease virus [1]): 625 µM (≈ 156 µg/mL)
MCC at 24 h [2]: 300 µM

O=C(NC1CCCCC1)C12CCCC3CC(CCC31)C2 (stereo not given)
MIC (Newcastle disease virus [1]): 2250 µM (≈ 620 µg/mL)
MCC at 24 h [2]: 2250 µM

O=C(NC12CC3CC(CC(C3)C1)C2)C12CCCC3CC(CCC31)C2 (stereo not given)
MIC (Newcastle disease virus [1]): 7500 µM (≈ 2460 µg/mL)
MCC at 24 h [2]: 2000 µM

N#CC12CCCC3CC(CCC31)C2 (stereo not given)
MIC (Newcastle disease virus [1]): 570 µM (≈ 99.9 µg/mL)
MCC at 24 h [2]: 850 µM

Cl.NCC12CCCC3CC(CCC31)C2 (stereo not given)
Ratio (Newcastle disease virus [3]): 30
MIC (Newcastle disease virus [1]): 45 µM
Ratio [4]: 2
MCC at 24 h [2]: 90 µM

BrC12CCCC3CC(CCC31)C2 (stereo not given)
MCC [2]: ND(Unstable)

C1=C2CCCC3CC1CCC23 (stereo not given)
MCC [2]: ND(Unstable)

O=C(Cl)C12CCCC3CC(CCC31)C2 (stereo not given)
MCC [2]: ND(Unstable)

O[C@H]1C2CCCC3C[C@H]1CC[C@H]32 (relative stereo)
MIC (Newcastle disease virus [1]): 900 µM (≈ 150 µg/mL)
MCC at 24 h [2]: 1800 µM

O[C@@H]1C2CCCC3C[C@@H]1CC[C@@H]32 (relative stereo)
MIC (Newcastle disease virus [1]): 750 µM (≈ 125 µg/mL)
MCC at 24 h [2]: 750 µM

NC12CC3CC(CC(C3)C1)C2 [AMANTADINE HYDROCHLORIDE]
MIC (Newcastle disease virus [1]): 1300 µM
MCC at 24 h [2]: 1300 µM
